Molecular target: human Plasma Kallikrein (KLKB1) (Homo sapiens (Human), UniProt P03952)
Experiment: Inhibition of KLKB1 endpoint assay
Format: biochemical
Conditions: fluorogenic substrate H-Pro-Phe-Arg-AMC, 1 hr at Room Temperature, read-out: IC50 measurements for the inhibition of human Plasma Kallikrein (KLKB1)
Procedure: The ability of compounds of Formula I to inhibit plasma kallikrein (KLKB1), Factor XIIa (FXIIa), Factor XIa (FXIa), Factor Xa (FXa), Factor IIa (alpha-thrombin; FIIa), plasmin, trypsin, tissue kallikrein 1 (KLK1), Factor VIIa (FVIIa), or FVIIa complexed with Tissue Factor, phospholipids and CaCl2 (FVIIa/TF/PL/CaCl2) was determined using the following biochemical assays in assay buffer (100 mM Tris, 150 mM NaCL, adjusted to a pH of 7.8 with HCl, and containing 0.1% (w/v) BSA and 0.05% (v/v) Tween20) in the presence of 1% (v/v) DMSO:
Evaluation of the Inhibition of KLKB1 Using an Endpoint Assay
Subsequently, PPACK II (Calbiochem) was added as a stop solution to achieve a final concentration of 1 μM and fluorescence was measured using an Envision Reader (PerkinElmer) with the wavelength excitation setting of 355 nm and the wavelength emission setting of 460 nm.
The IC50 values were obtained with the aid of the inhibition of KLKB1 endpoint assay described above.

Sequence of human Plasma Kallikrein (KLKB1) (P03952 391-638): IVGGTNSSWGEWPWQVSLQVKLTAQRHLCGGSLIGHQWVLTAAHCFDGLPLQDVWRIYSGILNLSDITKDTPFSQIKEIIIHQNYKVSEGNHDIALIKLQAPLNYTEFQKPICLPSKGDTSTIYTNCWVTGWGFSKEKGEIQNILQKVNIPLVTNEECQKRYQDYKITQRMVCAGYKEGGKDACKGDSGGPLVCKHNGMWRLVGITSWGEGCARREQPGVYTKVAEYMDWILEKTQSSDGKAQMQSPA
Sequence of human Plasma Kallikrein (KLKB1) (P03952 20-390 partner): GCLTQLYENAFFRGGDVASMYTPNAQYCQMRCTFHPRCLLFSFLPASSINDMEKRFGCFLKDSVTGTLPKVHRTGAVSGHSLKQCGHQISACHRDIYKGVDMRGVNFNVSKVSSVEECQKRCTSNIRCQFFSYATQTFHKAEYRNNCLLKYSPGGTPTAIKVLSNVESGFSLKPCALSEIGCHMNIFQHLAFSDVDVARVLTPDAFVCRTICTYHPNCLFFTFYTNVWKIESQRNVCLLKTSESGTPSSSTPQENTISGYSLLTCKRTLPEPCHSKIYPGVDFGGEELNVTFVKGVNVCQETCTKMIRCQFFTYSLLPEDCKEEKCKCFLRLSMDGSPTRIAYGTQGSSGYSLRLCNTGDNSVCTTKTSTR

SMILES	IC50
Nc1ccc2c(n1)CC[C@H]2NC(=O)c1cn(Cc2ccc(N3CC4CC4C3)nc2C(F)(F)F)nn1 (stereo partly drawn) [Example 39]	14 nM
Nc1ccc2c(n1)CC[C@H]2NC(=O)c1cnn(Cc2cnc(N3CC4CC4C3)cc2C(F)(F)F)c1 (stereo partly drawn) [Example 40]	9 nM
Nc1nccc2c1CC[C@H]2NC(=O)c1cnn(Cc2cnc(N3CC4CC4C3)cc2C(F)(F)F)c1 (stereo partly drawn) [Example 41]	1 nM
Nc1nccc2c1CC[C@H]2NC(=O)c1cn(Cc2cnc(N3CC4CC4C3)cc2C(F)(F)F)nn1 (stereo partly drawn) [Example 42]	1 nM
Nc1ccc2c(n1)CC[C@H]2NC(=O)c1cn(Cc2cnc(N3CC4CC4C3)cc2C(F)(F)F)nn1 (stereo partly drawn) [Example 43]	13 nM
Cc1cc(N2CC3CC3C2)ncc1Cn1cc(C(=O)N[C@@H]2CCc3nc(N)ccc32)cn1 (stereo partly drawn) [Example 44]	30 nM
Cc1cc(N2CC3CC3C2)ncc1Cn1cc(C(=O)N[C@@H]2CCc3c2ccnc3N)cn1 (stereo partly drawn) [Example 45]	4 nM
Cc1cc(N2CC3CC3C2)ncc1Cn1cc(C(=O)N[C@@H]2CCc3nc(N)ccc32)nn1 (stereo partly drawn) [Example 46]	38 nM
Cc1cc(N2CC3CC3C2)ncc1Cn1cc(C(=O)N[C@@H]2CCc3c2ccnc3N)nn1 (stereo partly drawn) [Example 47]	4 nM
Nc1ccc2c(n1)CCC2NC(=O)c1cn(Cc2ccc(CN3CC4CCCN4C3=O)cc2)nn1 (stereo not drawn) [Example 61, 1-[4-(3-Oxo-tetrahydro-pyrrolo[1,2-c]imidazol-2-ylmethyl)-benzyl]-1H-[1,2,3]triazole-4-carboxylic acid (2-amino-6,7-dihydro-5H-[1]pyrindin-5-yl)-amide]	340 nM
Nc1ccc2c(n1)CCC2NC(=O)c1cn(Cc2ccc(CN3CC4CC4C3=O)cc2)nn1 (stereo not drawn) [Example 62, 1-[4-(2-Oxo-3-aza-bicyclo[3.1.0]hex-3-ylmethyl)-benzyl]-1H-[1,2,3]triazole-4-carboxylicacid (2-amino-6,7-dihydro-5H-[1]pyrindin-5-yl)-amide]	410 nM
Nc1ccc2c(n1)CCC2NC(=O)c1cn(Cc2ccc(N3CC4CCCN4C3=O)cc2)nn1 (stereo not drawn) [Example 63, 1-[4-(3-Oxo-tetrahydro-pyrrolo[1,2-c]imidazol-2-yl)-benzyl]-1H-[1,2,3]triazole-4-carboxylic acid (2-amino-6,7-dihydro-5H-[1]pyrindin-5-yl)-amide]	3000 nM
Nc1ccc2c(n1)CCC2NC(=O)c1cn(Cc2ccc(CN3CCC4(CC4)C3=O)cc2)nn1 (stereo not drawn) [Example 64, 1-[4-(4-Oxo-5-aza-spiro[2.4]hept-5-ylmethyl)-benzyl]-1H-[1,2,3]triazole-4-carboxylic acid (2-amino-6,7-dihydro-5H-[1]pyrindin-5-yl)-amide]	580 nM
Nc1ccc2c(n1)CCC2NC(=O)c1cn(Cc2ccc(N3CC4CC4C3=O)cc2)nn1 (stereo not drawn) [Example 65, 1-[4-(2-Oxo-3-aza-bicyclo[3.1.0]hex-3-yl)-benzyl]-1H-[1,2,3]triazole-4-carboxylic acid (2-amino-6,7-dihydro-5H-[1]pyrindin-5-yl)-amide]	1100 nM
Cc1cc(Cn2cc(C(=O)N[C@@H]3CCc4nc(N)ccc43)cn2)ccc1CN1CC2CC2C1=O (stereo partly drawn) [Example 66, 1-[3-Methyl-4-(2-oxo-3-aza-bicyclo[3.1.0]hex-3-ylmethyl)-benzyl]-1H-pyrazole-4-carboxylic acid ((R)-2-amino-6,7-dihydro-5H-[1]pyrindin-5-yl)-amide]	18 nM
CC(c1ccc(N2CC3CC3C2)nc1)n1cc(C(=O)N[C@@H]2CCc3c2ccnc3N)cn1 (stereo partly drawn) [Example 71, 1-{1-[6-(3-Aza-bicyclo[3.1.0]hex-3-yl)-pyridin-3-yl]-ethyl}-1H-pyrazole-4-carboxylic acid ((R)-1-amino-6,7-dihydro-5H-[2]pyrindin-5-yl)amide]	9 nM
Nc1nccc2c1CC[C@H]2NC(=O)c1cnn(C2(c3ccc(N4CC5CC5C4)nc3)CC2)c1 (stereo partly drawn) [Example 74, 1-{1-[6-(3-Aza-bicyclo[3.1.0]hex-3-yl)-pyridin-3-yl]-cyclopropyl}-1H-pyrazole-4-carboxylic acid ((R)-1-amino-6,7-dihydro-5H-[2]pyrindin-5-yl)amide]	41 nM
Nc1nccc2c1CC[C@H]2NC(=O)c1cnn(Cc2ccc(N3CC4CC4C3)nc2)c1 (stereo partly drawn) [Example 75, 1-[6-(3-Aza-bicyclo[3.1.0]hex-3-yl)-pyridin-3-ylmethyl]-1H-pyrazole-4-carboxylic acid ((R)-1-amino-6,7-dihydro-5H-[2]pyrindin-5-yl)amide]	1 nM

Results, then the molecule that gave them:

IC50	SMILES
55 nM	Cc1cc(CN2CC3CC3C2=O)ccc1Cn1cc(C(=O)N[C@@H]2CCc3nc(N)ccc32)cn1 (stereo partly drawn) [Example 69, 1-[2-Methyl-4-(2-oxo-3-aza-bicyclo[3.1.0]hex-3-ylmethyl)-benzyl]-1H-pyrazole-4-carboxylic acid ((R)-2-amino-6,7-dihydro-5H-[1]pyrindin-5-yl)-amide]
> 10000 nM	Nc1ccc2c(n1)CCC2NC(=O)c1cn(Cc2cccc(N3CCN4CCCCC4C3=O)c2)nn1 (stereo not drawn) [Example 70, 1-[3-(1-Oxo-octahydro-pyrido[1,2-a]pyrazin-2-yl)-benzyl]-1H-[1,2,3]triazole-4-carboxylic acid (2-amino-6,7-dihydro-5H-[1]pyrindin-5-yl)-amide]
8 nM	Nc1ccc2c(n1)CC[C@H]2NC(=O)c1cnn(Cc2ccc(N3CC4CC4C3)nc2)c1 (stereo partly drawn) [Example 76]
2 nM	Nc1nccc2c1CC[C@H]2NC(=O)c1cn(Cc2ccc(N3CC4CC4C3)nc2)nc1C(F)(F)F (stereo partly drawn) [Example 77]
21 nM	Nc1ccc2c(n1)CC[C@H]2NC(=O)c1cn(Cc2ccc(N3CC4CC4C3)nc2)nc1C(F)(F)F (stereo partly drawn) [Example 78]
8 nM	Nc1nccc2c1CC[C@H]2NC(=O)c1cnn(Cc2ccc(N3CC4CCC4C3)nc2)c1 (stereo partly drawn) [Example 79]
3 nM	Nc1nccc2c1CC[C@H]2NC(=O)c1cnn(Cc2cnc(N3CC4CC4C3)nc2)c1 (stereo partly drawn) [Example 80]
19 nM	Nc1ccc2c(n1)CC[C@H]2NC(=O)c1cnn(Cc2cnc(N3CC4CC4C3)nc2)c1 (stereo partly drawn) [Example 81]
7 nM	Nc1nccc2c1CC[C@H]2NC(=O)c1cn(Cc2cnc(N3CC4CC4C3)nc2)nn1 (stereo partly drawn) [Example 82]
73 nM	Nc1ccc2c(n1)CC[C@H]2NC(=O)c1cn(Cc2cnc(N3CC4CC4C3)nc2)nn1 (stereo partly drawn) [Example 83]
1 nM	Nc1nccc2c1CC[C@H]2NC(=O)c1cnn(Cc2ccc(N3CC4C(C3)C4(F)F)nc2)c1 (stereo partly drawn) [Example 84]
4 nM	Nc1nccc2c1CC[C@H]2NC(=O)c1cnn(Cc2cnc(N3CC4CC4C3)cn2)c1 (stereo partly drawn) [Example 85]
34 nM	Nc1ccc2c(n1)CC[C@H]2NC(=O)c1cnn(Cc2cnc(N3CC4CC4C3)cn2)c1 (stereo partly drawn) [Example 86]
3200 nM	Cc1cc(N)nc2c1C(NC(=O)c1cn(Cc3ccc(N4CC5COCCN5C4=O)cc3)nn1)CC2 (stereo not drawn) [Example 87, 1-[4-(3-Oxo-tetrahydro-imidazo[5,1-c][1,4]oxazin-2-yl)-benzyl]-1H-[1,2,3]triazole-4-carboxylic acid (2-amino-4-methyl-6,7-dihydro-5H-[1]pyrindin-5-yl)-amide]
5 nM	Nc1nccc2c1CC[C@H]2NC(=O)c1cnn(Cc2ccc(N3CCC4(CC4)C3)nc2)c1 [Example 89]
78 nM	Nc1nccc2c1CC[C@H]2NC(=O)c1cnn(Cc2ccc(N3CC4(COC4)C3)nc2)c1 [Example 90]
38 nM	Nc1nccc2c1CC[C@H]2NC(=O)c1cnn(Cc2ccc(N3C[C@@H]4[C@@H](CO)[C@@H]4C3)nc2)c1 [Example 91]
23 nM	Nc1ccc2c(n1)CC[C@H]2NC(=O)c1cn(Cc2cnc(N3CC4CC4C3)nc2)nc1C(F)(F)F (stereo partly drawn) [Example 92]

Reference: patent US10640486B2, “Heteroarylcarboxamide derivatives as plasma kallikrein inhibitors” (Boehringer Ingelheim International GmbH, priority 2015, dated 2020)
